According to US20240100116A1, “EUCOMMIA ULMOIDES OLIV. LEAF EXTRACT CAPABLE OF PROTECTING HEALTH OF KIDNEY FUNCTION, AND PREPARATION AND DETECTION METHODS THEREOF” (Chenland Nutritionals Inc., priority 2023, published 2024):

Target: xanthine oxidase (Homo sapiens, UniProt P47989)
Assay: Xanthine oxidase (XOD) inhibition, uric acid production read at OD290 nm
Type: biochemical
Conditions: read-out: Inhibition rate (%)
Protocol: Xanthine oxidase catalyzes a xanthine substrate to produce uric acid and superoxide anion, and uric acid has a characteristic absorption peak under 290 nm UV conditions. By measuring the change curve of absorbance value within a certain time, the slope of this curve is the production rate of the uric acid, to measure the change of the activity of xanthine oxidase, so as to judge the uric acid lowering ability of the sample.
92.4 μL of xanthine oxidase mother solution (5 U/770 μL) is drawn in a centrifuge tube, and diluted with 11.9076 mL of PBS to obtain 0.05 U/mL xanthine oxidase working solution which shall be prepared for immediate use.
0.02284 g of xanthine is weighed in a beaker; 1.2 mL of 1 mol/L NaOH solution is added; ultrasonic treatment is conducted for 20 min; and the volume is fixed to 100 mL with the PBS to obtain 1.5 mmol/L xanthine working solution.
Eucommia ulmoides Oliv. leaf extract solutions: 0.50 g of corresponding Eucommia ulmoides Oliv. leaf extract sample in embodiment 5 is weighed; the volume is fixed to 50 mL with the PBS; the solution is thoroughly mixed well to prepare 10.0 mg/mL mother solution; and the mother solution is diluted with the PBS to different multiples to obtain different concentrations of Eucommia ulmoides Oliv. solutions.
2.1 A proper quantity of centrifugal tubes are taken and numbered as OD1, OD2, OD3 and OD4 respectively. Reagents are added to each tube according to the combinations of Table 1.
The concentrations are plotted in horizontal coordinates and the inhibition rates are plotted in vertical coordinates to calculate the concentration IC50 with half inhibition rate.

Sequence of xanthine oxidase (P47989 whole entry, species assumed): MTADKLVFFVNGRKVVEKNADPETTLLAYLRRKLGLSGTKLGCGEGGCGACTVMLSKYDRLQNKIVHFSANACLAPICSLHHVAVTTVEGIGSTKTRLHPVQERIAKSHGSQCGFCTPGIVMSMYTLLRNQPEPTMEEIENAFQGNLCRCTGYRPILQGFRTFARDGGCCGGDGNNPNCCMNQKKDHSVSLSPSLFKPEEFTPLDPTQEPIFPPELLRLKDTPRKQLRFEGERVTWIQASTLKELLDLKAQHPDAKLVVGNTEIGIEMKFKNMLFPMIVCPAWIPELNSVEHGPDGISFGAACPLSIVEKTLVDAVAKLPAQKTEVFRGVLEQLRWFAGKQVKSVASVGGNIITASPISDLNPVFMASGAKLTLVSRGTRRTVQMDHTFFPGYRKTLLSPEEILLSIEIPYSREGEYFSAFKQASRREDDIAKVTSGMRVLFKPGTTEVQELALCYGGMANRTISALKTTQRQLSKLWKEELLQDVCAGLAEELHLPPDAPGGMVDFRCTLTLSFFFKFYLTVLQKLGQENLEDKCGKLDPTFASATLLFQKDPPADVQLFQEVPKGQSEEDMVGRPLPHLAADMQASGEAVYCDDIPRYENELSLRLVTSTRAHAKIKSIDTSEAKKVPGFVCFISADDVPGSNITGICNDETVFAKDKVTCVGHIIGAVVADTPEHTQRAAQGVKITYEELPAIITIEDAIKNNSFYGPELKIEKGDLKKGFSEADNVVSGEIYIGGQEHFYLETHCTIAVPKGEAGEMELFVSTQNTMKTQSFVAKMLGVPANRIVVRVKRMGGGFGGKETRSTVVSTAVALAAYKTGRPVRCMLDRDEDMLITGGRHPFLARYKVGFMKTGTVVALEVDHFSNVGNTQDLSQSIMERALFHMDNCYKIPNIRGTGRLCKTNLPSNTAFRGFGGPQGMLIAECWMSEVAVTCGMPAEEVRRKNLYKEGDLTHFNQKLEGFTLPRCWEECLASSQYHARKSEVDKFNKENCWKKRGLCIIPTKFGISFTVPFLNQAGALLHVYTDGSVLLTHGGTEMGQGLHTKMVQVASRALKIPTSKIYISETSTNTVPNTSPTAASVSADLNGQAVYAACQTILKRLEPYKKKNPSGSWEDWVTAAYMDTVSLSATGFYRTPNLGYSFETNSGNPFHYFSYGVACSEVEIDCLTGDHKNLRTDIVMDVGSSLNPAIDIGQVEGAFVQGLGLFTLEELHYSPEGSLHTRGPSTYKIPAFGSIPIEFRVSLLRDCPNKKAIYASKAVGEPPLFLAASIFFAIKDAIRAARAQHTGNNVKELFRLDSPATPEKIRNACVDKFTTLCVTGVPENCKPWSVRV

Oc1ncnc2[nH]ncc12 [Allopurinol, allopurinol]
inhibition at 0.05 µg/mL (0.05 μg/ml): 34.1%
inhibition at 1 µg/mL (1 μg/ml): 44.9%
inhibition at 5 µg/mL (5 μg/ml): 59.4%
inhibition at 10 µg/mL (10 μg/ml): 74%
inhibition at 15 µg/mL (15 μg/ml): 81.2%
inhibition at 20 µg/mL (20 μg/ml): 87.2%
inhibition at 25 µg/mL (25 μg/ml): 93.3%
